Tests used:
[1] = system: collagen-induced type II arthritis; assay: Collagen-induced arthritis test; format: in vivo; details: mice; 200 mg/kg each, oral, from day of collagen injection to end of sixth week; oedema scores 1 to 4
Procedure: Confirmation of the anti-inflammatory effects of the composition according to the invention was obtained using as a test collagen-induced type II arthritis according to the technique described by […]. Exp. Med., 146:857, 1977). In this test, a group of mice were immunised by intradermal injection at the base of the tail of 100 μg of natural collagen emulsified in Freund complete adjuvant (Difco Labs., Detroit, USA). After three weeks, the animals thus treated were again injected intraperitoneally with the same dose of emulsified collagen. The treatment with propionyl […] (200 mg/kg) or with inositol hexaphosphate (200 mg/kg) or with the two compounds in combination was administered orally from the day of collagen injection up to the end of the sixth week. One group of animals received no treatment and served as a control group. The intensity of the oedema was assessed by assigning scores from 1 to 4.

[2] = system: swimming endurance in forced swimming; assay: Swimming endurance test; format: in vivo, mice; details: propionyl L-carnitine 200 mg/kg, IP6 100 mg/kg, oral on the three days preceding the test
Procedure: Since IP6, which is rich in phosphate groups, is a useful energy reserve, a series of tests were performed to establish whether its administration may increase the swimming endurance time in mice submitted to forced swimming in a rectangular tank full of water, according to the technique described by Zheng (Zheng R. L., Acta Pharmacol. Sinica, 14:47, 1993) and whether its effect could be enhanced by using it in combination with a carnitine, such as, for instance, propionyl L-carnitine. The tests were performed on various groups of animals treated with propionyl L-carnitine (200 mg/kg) or with IP6 (100 mg/kg) alone or with the two compounds in combination. The compounds were administered orally on the three days preceding the test. In the animals thus treated, swimming endurance time was measured as compared to control animals.

[3] = system: carrageenin-induced oedema of the rat paw; assay: Carrageenin oedema test; format: in vivo; details: 250 mg/kg each, oral
Procedure: To assess the anti-inflammatory effect of the new composition the carrageenin oedema test was used, in which rat paws are injected with carrageenin. The injection of 0.1 mL of 1% carrageenin solution (Sigma Chemical, St. Louis, Mo., USA) in the subplantar area of the rat's right paw induced marked oedema of the paw which reached its maximum intensity 4-5 hours after injection. The oedema was measured by mercury plethysmography at various different time intervals up to the fourth hour after carrageenin injection. Both propionyl L-carnitine (250 mg/kg) and IP6 (250 mg/kg) were administered orally half an hour prior to the subplantar carrageenin injection.

[4] = system: muscle lipoperoxidation (malondialdehyde); assay: Muscle fatigue test, forced muscular exercise on moving belt, MDA in gastrocnemius muscle; format: in vivo, rats; details: propionyl L-carnitine 200 mg/kg, IP6 100 mg/kg, three days before exercise; for MDA content in muscle after 5 min: gastrocnemius muscle 5 min after end of exercise; for MDA content in muscle after 30 min: gastrocnemius muscle 30 min after end of exercise
Procedure: Forced muscular exercise was tested in various groups of rats by making them run on a moving belt at controlled speed and angle of tilt, as described by Li (Li J. X., Acta Pharmacologica Sinica, 20:126, 1999) and Husain (Husain K., Pathophysiology, 4:69, 1997). The animals were made to run on an approximately 5° slope and at a belt speed of 28 m/min. The animals' stamina reached the point of exhaustion after approximately 85 min of exercise. The test was carried out in groups of animals which, during the three days preceding exercise, received 200 mg/kg of propionyl L-carnitine or 100 mg/kg of IP6 alone or in combination. Five and thirty minutes, respectively, after the end of exercise, samples of gastrocnemius muscle were taken from the sacrificed animals and used for measuring the malondialdehyde (MDA) content as a marker for the level of lipoperoxidation by means of reaction with thiobarbituric acid according to the method described by Ohkawa (Ohkawa H., Anal. Biochem., 95:351, 1979).

chick cerebral neurons = assay: Neuronal hypoxia, NaCN-induced, ATP assay; format: cell-based; details: propionyl L-carnitine 100 mg/L, IP6 50 mg/L; for ATP after reoxygenation time 0 / ATP after reoxygenation time 30 min: NaCN 1 mmol/L for 120 min; for ATP after reoxygenation time 0: reoxygenation 0; for ATP after reoxygenation time 30 min: reoxygenation 30 min
Procedure: To assess the protective activity of the composition according to the invention on hypoxia-induced damage at the neuronal level, tests were performed on cultures of chick cerebral neurons in which the reduction in cell respiration was induced by introducing NaCN into the cultures. […] The chick cerebral neuron cultures were prepared according to the technique described by […]., Nature, 281:378, 1979). Cytotoxic hypoxia was induced by adding NaCN to the culture medium to a final concentration of 1 mmol/L. After 120 min the medium was replaced by an NaCN-free medium, and the metabolism of the cells was blocked by washing with an iced buffer solution. The ATP assay was performed according to the procedure described by Werner (Werner A. J., Chromatogr. Biomed. Appl., 421:257, 1987).

ornithine decarboxylase = assay: Antiproliferative activity, teleocidin-induced ornithine decarboxylase in epidermis; format: in vivo, mice
[5] = system: platelets from healthy volunteers; assay: Anti-platelet aggregation activity (collagen-induced, Born method); format: cell-based, human; details: collagen 2.5 and 5 ng/mL, 10 min incubation, IP6 4 and 8 ng/mL
Procedure: The anti-platelet-aggregation activity of the composition according to the invention was assessed in blood samples from healthy volunteers. […] The aggregating agent used was collagen (2.5 ng/mL, 5 ng/mL) and the aggregation induced was measured photometrically according to the method described by Born (Born G. V., Nature, 194:927, 1962). […] The doses of propionyl L-carnitine used were 10 ng and 20 ng/mL, while the IP6 doses were 4 ng and 8 ng/mL.

[6] = system: atherosclerotic vascular lesions of the abdominal aorta; assay: Anti-atherosclerotic activity, atherogenic diet; format: in vivo, male Wistar rats; details: rats; atherogenic diet six weeks; daily 150 mg/kg propionyl carnitine, 100 mg/kg IP6
Procedure: […] according to the regimen proposed by Melinow (Melinow M. R., Atherosclerosis, 48:105, 1983). At the end of the sixth week of treatment, marked atherosclerotic vascular lesions had formed which were particularly pronounced at the abdominal aorta level. The severity of these lesions was evaluated by a morphometric method, measuring the thickness of the abdominal aorta and the intensity of the staining induced by Sudan IV with a progressive scoring system from 1 to 5. In these tests, the rats received daily administrations of 150 mg/kg of propionyl carnitine and 100 mg/kg of IP6, together with their atherogenic diets.

[7] = rat paw oedema, half an hour before carrageenin
[8] = mouse epidermis 5 h after teleocidin 5 μg/mouse s.c., oral pretreatment propionyl L-carnitine 200 mg/kg, IP6 100 mg/kg

Compound | oedema inhibition [1] | Swimming time [2] [min] | % inhibition after 2 h [3, 7] [%] | % inhibition after 4 h [3, 7] [%] | MDA content in muscle after 5 min [4] | MDA content in muscle after 30 min [4] | ATP after reoxygenation time 0 (chick cerebral neurons) [nmol g protein] | ATP after reoxygenation time 30 min (chick cerebral neurons) [nmol g protein] | Ornithine decarboxylase activity (ornithine decarboxylase; [8]) | inhibition of the aggregating action of collagen ([5]; propionyl L-carnitine 10 and 20 ng/mL) | protective effect against atherosclerotic lesions (morphometric examination and Sudan IV staining) [6] | mean swimming endurance time versus controls (in words) [2] | % inhibition after 1 h ([3]; rat paw oedema, half an hour before carrageenin, 1 h) [%] | inhibitory action on the inflammatory reaction induced by carrageenin (in words) ([3]; rat) | muscle lipoperoxidation in muscle homogenate (in words) [4] | ATP levels after anoxia and reoxygenation (in words) (chick cerebral neurons; NaCN 1 mmol/L) | reduction of the teleocidin-induced increase in ornithine decarboxylase activity (in words) (ornithine decarboxylase; oral pretreatment propionyl L-carnitine 200 mg/kg, IP6 100 mg/kg) | aggregating action of collagen, reduced to [5] [%] | Ornithine decarboxylase activity (ornithine decarboxylase; mouse epidermis 5 h after teleocidin 5 μg/mouse s.c. alone, no pretreatment)
CCC(=O)OC(CC(=O)[O-])C[N+](C)(C)C [Propionyl L-carnitine, propionyl L-carnitine] | no inhibitory effect | 116 ± 19 | 15 ± 0.3 | 8 ± 0.9 | 210 ± 10 nmol/g (WW) | 212 ± 14 nmol/g (WW) | 11.1 ± 1.6 | 16.3 ± 2.2 | 2.1 ± 0.2 nMol of CO2/60 min/mg protein | does not inhibit |  |  |  |  |  |  |  |  | 
O=P(O)(O)O[C@H]1[C@H](OP(=O)(O)O)[C@@H](OP(=O)(O)O)[C@H](OP(=O)(O)O)[C@@H](OP(=O)(O)O)[C@H]1OP(=O)(O)O [IP6, inositol hexaphosphate] | approximately 20% | 136 ± 16 | 20 ± 2.1 | 15 ± 0.6 | 200 ± 16 nmol/g (WW) | 205 ± 8 nmol/g (WW) | 12.4 ± 2.1 | 16.9 ± 1.9 | 1.95 ± 0.2 nMol of CO2/60 min/mg protein |  | only a slight protective effect | slightly increased | 15 ± 1.1 | slight inhibitory action | capable of reducing the levels of muscle lipoperoxidation | a lesser reduction of ATP levels is observed as well as more rapid restoration of ATP levels | significantly reduced | 40 | 
teleocidin |  |  |  |  |  |  |  |  |  |  |  |  |  |  |  |  |  |  | 2.6 ± 0.4 nMol of CO2/60 min/mg protein

From patent US6565876B1, “Carnitine and inositol phosphate-containing composition useful as dietary supplement or drug” (Sigma-Tau HealthScience S.p.A., priority 1999, dated 2003)
